Results on one molecule are retold here after US20190307783A1, “USE OF ANTIVIRALS TO INHIBIT PROTOZOAN VIRUSES” (priority 2016, published 2019).

The subject of series [1] is LRV1+ Lgy M4147 parasites. As to the kind of experiment: Intracellular 2CMA-TP accumulation and retention in parasites (HPLC). The format is in vitro ADME, Leishmania guyanensis. The following applies: for Intracellular 2CMA-TP concentration: 18 hours, n=4. The text has this:
To account for the relative sensitivity of Lgy LRV1 to 2CMA compared to the insensitivity of LRV1 RDRP activity to inhibition by 2CMA-TP, we hypothesized that parasites take up and activate 2CMA, accumulating high 2CMA-TP concentrations. We first identified an HPLC protocol capable of resolving both synthetic 2CMA-TP and a smaller peak we presume to be 2CMA-DP from natural ribonucleotides and the internal standard, dGTP (FIG. 23A and FIG. 23B). Standard mixtures of known concentration were used to generate a standard curve relating peak area to 2CMA-TP amounts (FIG. 30). We then tested several protocols for extracting parasite nucleotides and determined that extraction with 1:1 acetonitrile:water performed best. Using this protocol, we compared the nucleotide profiles of LRV1+ Lgy grown in the presence or absence of 10 μM extracellular 2CMA for 18 hours, a time chosen because it corresponds to about two rounds of parasite replication. Under these conditions, we observed a peak co-eluting with synthetic 2CMA-TP that was absent from untreated parasites (FIG. 25B), establishing the parasite's capacity to phosphorylate 2CMA.
We then measured steady-state levels of intracellular 2CMA-TP following incubation of late-log-phase parasites with 2CMA for 18 hours. To determine the intracellular concentration of 2CMA-TP under these conditions, we measured the average volume of the parasites (roughly 23 fL). […] Over this range of concentrations, internal 2CMA-TP levels exceeded external 2CMA concentrations by 40- to 80-fold (FIG. 26A and FIG. 26B), attesting to the potency of the parasite's purine salvage pathway.
Cultures of WT or GFP-expressing LRV1+ Lgy M4147 were seeded at 2×10^5 cells/mL and analyzed when they reached early, mid, or late log phase. From each sample, one aliquot was analyzed by light scattering on a flow-cytometer, while another was immobilized by treatment with 20 mM sodium azide and imaged by spinning-disk confocal microscopy {Ellenberger, 1987}. Cell volumes were calculated using a custom ImageJ script {Schindelin, 2012}. A standard curve relating forward scattering intensity to measured volume was developed and used to estimate metabolite concentrations (FIG. 29).
For drug metabolism studies, 10^8 late-log phase parasites in 5 mL of Schneider's medium were treated with indicated drug concentrations for 20 hours. For accumulation assays, 10^8 cells were harvested immediately. In ‘washout’ experiments, one 5 mL culture was grown for each replicate of each time point. These cultures were spun down, resuspended in drug-free medium, centrifuged again, and finally suspended in 5 mL drug-free Schneider's medium. After 2, 4, or 8 hours, nucleotides were extracted from 10^8 parasites from individual washed cultures and analyzed by HPLC.
For each sample, cells were collected by centrifugation at 2200×g, 4° C. for 5 minutes, re-suspended in 1 mL ice-cold PBS and re-centrifuged. The cell pellet was gently re-suspended in 100 μL ice-cold 0.5×PBS plus 7 nmol dGTP as a recovery and elution standard. […] Cells were immediately lysed by rapidly re-suspending in 900 μL ice-cold 5:4 acetonitrile:water mixture {Au, 1989} and vortexing continuously for 5 min at 4° C. Insoluble debris was pelleted at 16,000×g for 5 minutes and the clarified extract was transferred to a fresh tube. The solvent was removed by evaporation in a SAVANT SpeedVac concentrator (Thermo Scientific) with the heater off and the vacuum pump refrigeration on. Samples were re-suspended with 80 μL distilled water, flash frozen, and stored at −80° C. prior to HPLC analysis.
Nucleoside di- and tri-phosphates were separated by isocratic HPLC as described {Moal, 1989}. […]

Series [2] can be described thus: HPLC test of 2CMA-TP degradation during the RDRP reaction. It counts as physicochemical. The conditions noted are these: 1 hr incubation, 300 μM, n=3. The protocol: Incubation of the three LRV1 populations with 2CMA-TP reduced synthesis of both the full-length and small RDRP products (FIG. 22A, FIG. 22B, FIG. 23A, FIG. 23B, and FIG. 24). The synthesis of each product was quantitated and normalized to that obtained with drug-free controls, from which IC50s were calculated (Table 3). […] We were concerned that this arose artificially from 2CMA-TP degradation during the assay.
To study inhibition of the viral RDRP by 2CMA-TP, varying amounts of the compound were added to standard RDRP reaction mixtures. 2CMA-TP was custom synthesized by Jena Bioscience, and its identity was confirmed using electrospray ionization with a Fourier-transform mass spectrometer in negative ion mode (Thermo Scientific). The stock concentration of 2CMA-TP was calculated by UV absorption at 260 nm, assuming that its molar extinction coefficient was identical to ATP. To measure the amount of 2CMA-TP which is non-specifically hydrolyzed over the course of an RDRP reaction, mock reactions were run using LRV1− gradient fractions, cold UTP, and 300 μM 2CMA-TP. The 20-μL reactions were diluted to 80 μL with distilled water and immediately analyzed by HPLC as described below.

In series [3] the test system is LRV2. As to the kind of experiment: Virus levels in L. major strain 5-ASKH bearing LRV2. The following applies: data not shown. The format is cell-based, Leishmania major. The text has this: A second line of inquiry would of course be the development of anti-LRV1 agents with improved potency.

The structures appear in SMILES notation. Where “and” joins values, the source holds several entries; their conditions need not be identical. Equal values may be shown once.

Turning to `C[C@@]1(O)[C@H](O)[C@@H](COP(=O)(O)OP(=O)(O)OP(=O)(O)O)O[C@H]1n1cnc2c(N)ncnc21` [Compound 2CMA-TP, 2′-C-methyladenosine triphosphate], the “Intracellular 2CMA-TP concentration” value in series [1] (1 μM external 2CMA) was 78 ± 9.0 µM and 80 µM; in series [1] (3 μM external 2CMA), 152 ± 43 µM; in series [1] (10 μM external 2CMA), 410 ± 110 µM and 410 µM. Moreover, the “Accumulated 2CMA-TP retained” value in series [1] (4 hours in drug-free medium after 18 hours in 10 μM 2CMA) is recorded as “approximately 50%”. Also, the “Intrinsic 8 hour 2CMA-TP concentration” value in series [1] (8 hours in drug-free medium, corrected for population growth) was 230 ± 130 µM. For the same molecule, in series [1] (8 hours in drug-free medium, not corrected for parasite replication), the “Average 2CMA-TP concentration after washout” value is 170 ± 100 µM. For the same molecule, the “2CMA-TP degraded (to apparent 2CMA-DP) during the assay” value in series [2] was 3.7±0.6%. Further, in series [3], the “Inhibition of LRV2 virus levels, in words” value is reported as “no inhibition of virus levels”.
